The values below come from PubChem BioAssay (NCI).

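Five compound concentrations were applied to cells in 96-well plates for 48 hours; endpoints were derived by simple linear interpolation of the resulting dose-response curve. TGI: concentration producing complete growth inhibition.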 Bounds are passed on as bounds.

The TGI is the concentration giving total growth inhibition. The low end stands for greater sensitivity of the cells, the high end for lower sensitivity of the cells.

Among the test systems are A498 renal; A549 NSCLC; ACHN renal; CCRF-CEM leukemia; EKVX NSCLC; HCC-2998 colon; HCT-116 colon; HCT-15 colon; M14 melanoma; MCF7 breast; NCI-H226 lung; SF-268 CNS; SF-539 CNS; SK-MEL-2 melanoma; SK-MEL-5 melanoma; SN12C renal; SR leukemia; TK-10 renal; UACC-62 melanoma; UO-31 renal.
What all share (assay): DTP human tumour cell line panel, 48 h

Consider `c1ccc(C2=C(c3ccccc3)Sc3nnc(CCCCCCCCc4nnc5n4NC(c4ccccc4)=C(c4ccccc4)S5)n3N2)cc1`, for which the TGI was above 100 µM in the test with A498 renal; above 100 µM with A549 NSCLC; above 100 µM in the test with ACHN renal; 72.4 µM with CCRF-CEM leukemia; above 100 µM with EKVX NSCLC; above 100 µM in the test on HCC-2998 colon. Besides, the TGI with HCT-116 colon, with HCT-15 colon, in the test on M14 melanoma, with MCF7 breast, in the test with NCI-H226 lung and in the test on SF-268 CNS was above 100 µM in each case. Further, the TGI in the test with SF-539 CNS, in the test with SK-MEL-2 melanoma, in the test on SK-MEL-5 melanoma, with SN12C renal, in the test with SR leukemia and with TK-10 renal was above 100 µM throughout. Moreover, the TGI in the test on UACC-62 melanoma and in the test with UO-31 renal was above 100 µM in each case.
Turning to `O=C(NCCCCCCCN1CCCCCCC1)C(C1CCCCC1)C1CCCCC1`, the TGI amounted to 15.5 µM with A498 renal; 25.7 µM in the test with A549 NSCLC; 24.4 µM in the test on ACHN renal; 46.9 µM in the test on CCRF-CEM leukemia; 18.9 µM with EKVX NSCLC; 7.59 µM in the test on HCC-2998 colon. The TGI in the test with HCT-116 colon came out at 21.5 µM; in the test with HCT-15 colon, 15.2 µM; in the test with M14 melanoma, 3.97 µM; with MCF7 breast, 19.8 µM; with NCI-H226 lung it was 23.5 µM; in the test with SF-268 CNS, 32.5 µM. Also, the TGI in the test on SF-539 CNS is 24.6 µM; in the test on SK-MEL-2 melanoma, 22.2 µM; in the test on SK-MEL-5 melanoma it was 5.51 µM; in the test on SN12C renal, 26.9 µM; in the test with SR leukemia, 6.84 µM; in the test with TK-10 renal, 25.6 µM. Moreover, the results for the TGI in the test with UACC-62 melanoma and with UO-31 renal were 10.1 µM and 21.3 µM, respectively.
As to `O=c1[nH]c(=O)n(C2C(CO)OC(CO)C2O)cc1F` (stereo not given), the TGI with A498 renal, with A549 NSCLC, in the test with ACHN renal, in the test with CCRF-CEM leukemia, in the test on EKVX NSCLC and in the test on HCC-2998 colon was above 100 µM each time. Further, the TGI in the test on HCT-116 colon, in the test with HCT-15 colon, with M14 melanoma, in the test on MCF7 breast, with NCI-H226 lung and in the test with SF-268 CNS was above 100 µM each time. The TGI in the test with SF-539 CNS, in the test on SK-MEL-2 melanoma, in the test on SK-MEL-5 melanoma, with SN12C renal, with SR leukemia and in the test with TK-10 renal was above 100 µM each time. The TGI in the test on UACC-62 melanoma and in the test on UO-31 renal was above 100 µM each time.
